Patent publication US20180110743A1, “COMPOSITIONS AND METHODS FOR TREATING HEPATOCELLULAR CARCINOMA” (Northwestern University, priority 2015, published 2018)
Like-named read-outs stand apart in the source and are kept apart here.

Key:
[1] = tested on: HepG2 cells; assay: Cell cycle profiling by Dapi staining and flow cytometry; type: cell-based, human; settings: 5 uM for 24 hours
Experimental: After treatment, cells were washed with PBS two times and centrifugation then, re-suspended in PBS (Ca and Mg free). 3.0m1 ice cold 95% ethanol was added to the cell pellet in a dropwise manner while vortexing and then was incubated for 30 minutes. The volume was brought up to 15 mL with PBS and the cells was pelleted and washed one time with PBS via centrifugation. Cells were resuspended in 1 ml of 10 ug/ml Dapi in PBS with 0.1% TritonX-100 to a concentration of 1×10^6cells/ml and incubated for 30 minutes on ice. The samples were then analyzed through flowcytometery and the DNA contents of the cellular population were sorted and evaluated.
Additional evidence supporting the differences between MEAN and AMN came from their differential impact on cell cycle.

[2] = tested on: c-myc; assay: RNA array analysis of treated HepG2 cells; type: cell-based, human; settings: 20 μM for 6 hours, vs DMSO
Experimental: RNA expression analysis was performed by GeneChip® PrimeView™ Human Gene Expression Array. Initially, genes were identified as being differentially expressed on the basis of a statistical significance (P <0.05) and 1.5-fold change (up or down) in expression levels in each comparison.
The choice of the treatment dose was based on the PK analyses (supplemental material) that the serum concentration of MEAN is around 20 uM approximately 6 hours after injection. Furthermore a relatively short duration of treatment was designed to catch the more primary cellular responses at the early stage of the treatment. GeneChip® PrimeView™ Human Gene Expression Array was used in triplicates to quantify RNA extracted from treated HepG2 cells.

[3] = tested on: SIRT1; assay: Western blot of treated HCC cells in culture, SIRT1; type: cell-based, human; settings: HepG2 and Huh7 cells
Experimental: (§1) Cells or tumor chunks were lysed with RIPA lysis buffer (Beyotime Biotechnology, Jiangsu, China) containing 1% Halt™ Protease and Phosphatase Inhibitor Cocktail (100X) (Thermo Fisher Scientific). 20 ug of total protein per lanewere separated by 10% SDS-PAGE gels and transferred to polyvinylidene difluoride membranes (Millipore, Bedford, Mass.), and blocked with 1% BSA in TBS-Tween 20 (0.05%, v/v) for 1 h at room temperature. The membrane was incubated with primary antibody overnight at 4° C. Antibodies for c-Myc and GAPDH were obtained from Cell Signaling Technology (Beverly, Mass.), and TXNIP, SHP-1, and SIRT1 were obtained from Abcam (Cambridge, Mass.). After washing, the membrane was incubated with the appropriate horseradish peroxidase-conjugated secondary antibody (1:3000; Eptmomics) for 1 h. Blots were visualized by ECL-associated fluorography (Millipore). Relative band intensity was quantified using the ImageJ software to determine c-myc, TXNIP, SHP-1, and SIRT1 levels.

[4] = tested on: c-myc; assay: Western blot of treated HCC cells in culture, c-myc; type: cell-based, human; settings: HepG2 and Huh7 cells; less than 10 uM (FIG. 5B and D)
Experimental: as §1

[5] = tested on: TXNIP; assay: Expression in treated HCC cells in culture, TXNIP; type: cell-based, human; settings: treated cells in vitro
Experimental: as §1

[6] = tested on: SHP-1; assay: Western blot of treated HCC cells in culture, SHP-1; type: cell-based, human; settings: HepG2 and Huh7 cells in culture
Experimental: as §1

[7] = tested on: KB/VCR; assay: Growth inhibition IC50 in multidrug-resistant vs parental cells (resistance factor), KB/VCR; type: cell-based; settings: ratio of IC50 in KB/VCR to sensitive parental cells
Experimental: (§2) To address this point, the IC50 of MEAN in cell lines with or without activated p-glycoprotein were compared based on the rationale that if an agent is a substrate, its IC50 (growth inhibition in this case) will increase substantially in cells with activated p-glycoproteins (multi-drug resistant cells). Three separate experiments were carried out to determine the values of IC50, as mean±standard deviation (μM), and the inhibition rates of each concentration of compounds were tested in triplicate. The resistance factor (RF) was calculated as the ratio of the IC50 value of the multidrug-resistant cells to that of the corresponding sensitive parental cells.
(§3) IC50 of MEAN and reference compounds, doxorubicin and vincristine (VCR), were evaluated in three MDR expressing sublines: K562/ADR, MCF-7/ADR, and KB/VCR developed from resistance to Adriamycin (ADR) (FIG. 4C). For each of these cell lines, the RFs were measured to indicate the anti-MDR properties of the compounds. The resistance factor for doxorubicin in K562/ADR and MCF-7/ADR sublines and for vincristine in the KB/VCR subline were 74.1, 54.0, and 51.2.

[8] = tested on: K562/ADR; assay: Growth inhibition IC50 in multidrug-resistant vs parental cells (resistance factor), K562/ADR; type: cell-based; settings: ratio of IC50 in K562/ADR to sensitive parental cells
Experimental: as §2, §3

[9] = tested on: MCF-7/ADR; assay: Growth inhibition IC50 in multidrug-resistant vs parental cells (resistance factor), MCF-7/ADR; type: cell-based; settings: ratio of IC50 in MCF-7/ADR to sensitive parental cells
Experimental: as §2, §3

[10] = tested on: HCC; settings: cited from earlier work
[11] = tested on: SHP-1; assay: Western blot of treated xenograft tumor tissue, SHP-1; type: in vivo, mice; settings: Huh7 and HepG2 tumors, end of 42 day treatment
Experimental: (§4) FIG. 6. […] The intensity of vehicle is set at 1 and ratios of treatment/vehicle are plotted in each quantitative graph.
as §1

[12] = tested on: TXNIP; assay: Western blot of treated xenograft tumor tissue, TXNIP; type: in vivo, mice; settings: Huh7 and HepG2 tumors, end of 42 day treatment
Experimental: as §4, §1

[13] = tested on: Huh7-luc xenograft; assay: Huh7-luc xenograft tumor growth in nude mice; type: in vivo; settings: 15 mg/kg each agent, IP, 5 days-on and 2 days-off for 42 days
Experimental: (§5) FIG. 1. MEAN inhibits Huh7-luc xenograft tumor growth more potently than sorefenib in nude mice. Ten days after inoculation of 10^7 tumor cells subcutaneously, mice were treated with MEAN (15 mg/kg), sorafenib (15 mg/kg), or MEAN and sorafenib in combination at 15 mg/kg each, or vehicle through IP at a schedule of 5 days-on and 2 days-off for 42 days. The tumor growths were measured by whole mount imaging of luciferin florescence (representative images) (A) photon counts biweekly (B) and photon count at end of the experiment, day 42th (C), by volume (D), and by tumor weight at the experimental end point (E). Statistical analyses using t test are shown in (C and E), where *=p<0.5 and **=p<0.01. Where there is not black bar indicates p>0.5 (n=5).
(§6) HepG2-luc and Huh7-luc xenograft studies of efficacy and toxicity: Male nu/nu (nude) mice (18-20 g at experiment initiation) were maintained at the vivarium of Zhejiang University in a pathogen-free unit, under a 12-hour light/dark cycle. […] Images were collected and analyzed with Living Image software (Slidebook 4.1, Denver, Colo.). Tumor volumes were determined twice weekly by mechanically measuring the length (a) and width (b), with volume=ab^2/2. Tumor weights were measured at the experimental end point, and statistical analysis was performed using Student's t test. […]

[14] = tested on: SIRT1; assay: Western blot of treated xenograft tumor tissue, SIRT1; type: in vivo, mice; settings: Huh7 and HepG2 tumors, end of 42 day treatment
Experimental: as §4, §1

[15] = tested on: HepG2-luc xenograft; assay: HepG2-luc xenograft tumor growth in nude mice; type: in vivo; settings: 15 mg/kg each agent, IP, 5 days-on and 2 days-off for 42 days
Experimental: as §5, with “FIG. 2.” for “FIG. 1.”, “inhibits HepG2-luc” for “inhibits Huh7-luc”
as §6

[16] = Toxicity in treated xenograft mice: body weight, behavior, eating, stool; type: in vivo; settings: 15 mg/kg each agent, 5 days on and 2 days off, six weeks
Experimental: FIG. 3. Toxicity induced by treatment of MEAN, sorafenib or a combination of both were measured against vehicle treated group through monitoring body weight changes throughout treatment course (A) and detecting the serum levels of liver enzymes at the experimental end point (B). The recovery of liver enzymes days after experimental end point (42nd day). n=10. a: each group vs Vehicle, b: sorafenib vs MEAN, c: M+S vs MEAN. *: p<0.05, **: p<0.01, Sorafenib vs M+S: has no difference.
HepG2-luc and Huh7-luc xenograft studies of efficacy and toxicity: Male nu/nu (nude) mice (18-20 g at experiment initiation) were maintained at the vivarium of Zhejiang University in a pathogen-free unit, under a 12-hour light/dark cycle. […] Images were collected and analyzed with Living Image software (Slidebook 4.1, Denver, Colo.). Tumor volumes were determined twice weekly by mechanically measuring the length (a) and width (b), with volume=ab^2/2. Tumor weights were measured at the experimental end point, and statistical analysis was performed using Student's t test.
To determine whether the combinational treatment by MEAN and sorefenib could increase toxicity compared to those caused by monotherapy, the toxicity induced by the treatment with either agent alone and in combination was evaluated in treated animals. […]

[17] = Serum ALT and AST measurement in treated mice; type: in vivo; settings: 42nd day of treatment, 15 mg/kg each agent, vs vehicle
Experimental: Blood samples were collected from each mouse at the end of the 42th day. Serum alanine aminotransferase aspartate (ALT) and aspartate aminotransferase (AST) were measured with an automated biochemical analyzer (DRI-CHEM 4000ie, FUJIFILM).
To determine whether the combinational treatment by MEAN and sorefenib could increase toxicity compared to those caused by monotherapy, the toxicity induced by the treatment with either agent alone and in combination was evaluated in treated animals. Toxicity was assessed by periodic body weight, mice behavior (grooming), eating, stool consistency, and serum liver enzymes levels (alanine aminotransferase, ALT, and aspartate aminotransferase, AST) at the experimental end points. […] This increase is reversible within 2 weeks of the treatment withdrawal (FIG. 3C).

[18] = tested on: c-myc; assay: Western blot of treated xenograft tumor tissue, c-myc; type: in vivo, mice; settings: Huh7 and HepG2 tumors, end of 42 day treatment
Experimental: as §4, §1
To evaluate whether the gene expression changes in response to MEAN is cell type specific, another HCC cell line, Huh7 was also examined for the corresponding gene expression changes upon the treatment by MEAN. […]

With Amonafide [AMN, reference compound] the “cell cycle profile (DNA content)” value [1] was “G2 accumulation with diminishing Gl”, the “c-myc RNA expression level” value [2] was “significantly reduce” and the SIRT1 protein level [3] was “not significantly changed”. For the same compound, the “c-myc (myc) protein level” value [4] was “does not significantly reduces”, the TXNIP expression [5] was “significantly increase” and the SHP-1 protein level [6] was “does not significantly impact”.
In the case of CC[C@]1(O)C[C@H]2CN(CCc3c([nH]c4ccccc34)[C@@](C(=O)OC)(c3cc4c(cc3OC)N(C=O)[C@H]3[C@@](O)(C(=O)OC)[C@H](OC(C)=O)[C@]5(CC)C=CCN6CC[C@]43[C@@H]65)C2)C1 [vincristine, reference compound], the “resistance factor (RF)” value [7] is reported as 51.2.
With COc1cccc2c1C(=O)c1c(O)c3c(c(O)c1C2=O)C[C@@](O)(C(=O)CO)C[C@@H]3O[C@H]1C[C@H](N)[C@H](O)[C@H](C)O1 [doxorubicin, reference compound] the “resistance factor (RF)” value [8] was 74.1 and the “resistance factor (RF)” value [9] was 54.0.
In the case of CNC(=O)c1cc(Oc2ccc(NC(=O)Nc3ccc(Cl)c(C(F)(F)F)c3)cc2)ccn1 [sorafenib, reference compound], the median overall survival ([10]; Asian study) is given as 6.5 months, the median overall survival ([10]; SHARP study) is given as 10.7 months and the “SHP-1 protein level in tumors” value [11] is given as “does not significantly change”. The “TXNIP protein level in tumors” value [12] was “does not significantly change”, the “tumor growth compared with vehicle (luciferase emission, tumor volume, tumor weight)” value [13] was “significant tumor growth retardation” and the “SIRT1 protein level in tumors” value [14] was “does not significantly change”. The “tumor growth compared with vehicle (luciferase emission, tumor volume, tumor weight)” value [15] was “significant tumor growth retardation”, the body weight change [16] was “did not significantly alter body weight” and the “serum liver enzymes (ALT and AST) at experimental end point” value [17] was “more significantly increased”. For the same compound, the “c-myc protein level in tumors” value [18] was “does not significantly change”.
